# Source: US8653052B2, “Drug combination and its use in the treatment of muscle loss” (Acacia Pharma Limited, priority 2007, dated 2014)
# Where a name gives a salt, the structure may show the parent alone.
# How the values were obtained:
# [1] = system: tumour bearing rats (AH-130 Yoshida ascites hepatoma); test: Yoshida AH-130 rat ascites hepatoma cachexia model, initial experiment: total food intake; format: in vivo; details: at day 3, racemic formoterol 10 μg/kg/day, alone or with megestrol acetate 100 mg/kg/day
# From the text: This study involves the use of the Yoshida AH-130 rat ascites hepatoma model, which is a particularly suitable model system for studying the mechanisms involved in the establishment of cachexia. Its growth in the host causes rapid and progressive loss of bodyweight and tissue wasting, particularly in skeletal muscle. […] Co-administration of each of these β2 agonists with the progestin, megestrol acetate, is also investigated.
# Wistar rats weighing about 100 g are used (Busquets et al 2004, Cancer Res 64:6725-6731). The animals are maintained on a regular light-dark cycle (light from 08.00 am to 8.00 pm) with free access to food and water. Their diet consists of 54% carbohydrate, 17% protein and 5% fat, and the food intake is measured daily. Rats are given an intraperitoneal inoculum of 10^8 AH-130 Yoshida ascites hepatoma cells obtained from exponential tumours.
# The animals were divided into groups: those receiving the test drugs and those receiving vehicle. Drug administration is by subcutaneous injection. Seven days after tumour transplantation, the animals are weighed and anaesthetised with a ketamine/xylacine mixture. The tumour is harvested from the peritoneal cavity, and its volume and cellularity evaluated. […]
# In an initial experiment, the tumour bearing rats were divided into three groups. […] The rats were monitored over a 3 day period.
# [2] = as reported in U.S. Pat. No. 5,449,694; cited from earlier work
# [3] = system: cancer patients; details: cited from earlier work; for Effect on appetite, calorie intake and nutritional status: several clinical trials
structure (smiles),measurement,setting,value
"COc1ccc(CC(C)NCC(O)c2ccc(O)c(NC=O)c2)cc1 (racemic) [racemic formoterol, (±)-N-[2-Hydroxy-5-[1(R*)-hydroxy-2-[1(R*)-methyl-2-(4-methoxyphenyl)ethylamino]ethyl]phenyl]formamide fumarate (2:1) monohydrate]",Total food intake,[1],45±2 g/100 g rat
"C[C@@H](NCCc1ccc(O)cc1)[C@@H](O)c1ccc(O)cc1.Cl (single isomer, unassigned) [(−)-ritodrine]",Relative potency of enantiomers,[2],more potent enantiomer
CC(=O)O[C@]1(C(C)=O)CC[C@H]2[C@@H]3C[C@H](C)C4=CC(=O)CC[C@]4(C)[C@H]3CC[C@@]21C [medroxy-progesterone acetate],"Effect on appetite, calorie intake and nutritional status",[3],"improve appetite, calorie intake and nutritional status"
CC(=O)O[C@]1(C(C)=O)CC[C@H]2[C@@H]3C=C(C)C4=CC(=O)CC[C@]4(C)[C@H]3CC[C@@]21C [megestrol acetate],Cancer patients treated with a weight gain of greater than 5%,"[3]; cancer patients, significant component of the gain due to fat",15%
same,"Effect on appetite, calorie intake and nutritional status",[3],"improve appetite, calorie intake and nutritional status"
